# Article PMC12598805, “Crystal Structure–Activity Relationship of Some MeO Phenylacrylonitriles: Dual Antimicrobial–Cytotoxic Effects and in Silico Perspectives” (ChemistryOpen, 2025)
# How the values were obtained:
# Assay type in all cases: cell-based
# [1] = tested on: Pseudomonas aeruginosa (ATCC 27853); assay: MBC by sub-culture from wells without growth; settings: ATCC27853, P.aeruginosa
# Method: Pseudomonas aeruginosa (ATCC 27853) […]
# (§1) ATCC: American Type Culture Collection; NRRL: Northern Regional Research Laboratory The compounds 2(a-c) obtained could only be completely solubilised with dimethyl sulphoxide (DMSO) and the highest possible stock solutions of 50 mg.mL-1 were prepared. […]
# (§2) 3.1. Determination of Minimum Inhibition Concentration (MIC)
# (§3) The minimum inhibition concentration (MIC) values of the compounds 2(a-c) against the test bacteria used in the study were determined according to the broth microdilution method.[1-2] MHB or SDB was used as test medium and bacterial and yeast suspensions were prepared at 0.5 Mc Farland concentration for each test bacteria. Double layer serial dilutions were prepared in "U" type 96-well microtiter plates. Medium+bacteria suspensions containing only medium in the first row, medium+bacteria in the second row and the final concentrations of the synthesised substances in the other rows between 25 mg.mL-1 and […] were added to the wells with a final volume of 200
# (§4) μL. Ampicillin, Kanamycin and Amphotericin B standard antibiotics were used as positive controls.
# (§5) Bacteria were incubated at 37±0.1 °C and C. albicans at 30±0.1 °C for 24-48 hours and the lowest concentration without growth was determined as MIC. Tests were performed in two parallel runs and mean values were given as a result. In order to estimate “the minimum bactericidal/fungicidal concentrations (MBC/MFC) of the synthesised acrylonitrile derivatives “needed to indicate […] killing of the original inoculum,” 10 μl was taken from the wells with no observed growth and further sub-cultured onto their agar media (MHA and SDA for bacterial and fungal strains, respectively).[3] […]
# [2] = tested on: Escherichia coli (ATCC 25922); assay: Agar diffusion, zone of inhibition; settings: compounds at 50 mg mL^−1; for zone of inhibition: E.coli; for zone of inhibition at 50 mg/mL: Escherichia coli, ATCC25922, E.coli
# Source text: (§6) The antibacterial and antifungal activities were reported utilizing the method described by the Clinical & Laboratory Standards Institute.^[ [31], [32] ^] Agar diffusion method was used to determine the antimicrobial activity of the synthesized substances. The media used were mueller hinton agar (MHA) for bacteria and sabouraud‐dextrose agar (SDA) for fungi (Merck), as recommended by the manufacturer.
# (§7) The synthesized compounds were initially investigated for their antimicrobial activity to elucidate the potential therapeutic utility against various pathogenic microbes using the agar plate diffusion method. The compounds were tested at a concentration of 50 mg mL^−1, and the antibiotics (ampicillin, kanamycin, and amphotericin B) were used at 5 mg mL^−1. […] K.pneumoniae and B.cereus were resistant to ampicillin, while they were susceptible to kanamycin with inhibition values of 30 and 26 mm, respectively. No antimicrobial activity of the compounds was observed against E.faecalis, S.typhimurium, K.pneumoniae, and for the fungus compared to Amphotericin B (20 mm). […]
# Escherichia coli (ATCC 25922) […]
# (§8) ATCC: American Type Culture Collection; NRRL: Northern Regional Research Laboratory The compounds 2(a-c) obtained could only be completely solubilised with dimethyl sulphoxide (DMSO) and the highest possible stock solutions of 50 mg.mL-1 were prepared. To these wells 50 μl of the previously prepared substances were transferred using sterile micropipette tips. For comparison, Ampicillin and kanamycin antibiotics for bacteria and Amphotericin B antibiotics for fungus were used as positive controls and DMSO was used as negative control. The prepared petri plates were kept at +4°C for about 1 hour and then the bacterial cultures were incubated at 37°C for 18-24 hours and mould cultures at 27-30°C for 48-72 hours. The zones formed were measured millimetrically with callipers. The experiments were performed with three repetitions. […]
# [3] = tested on: Bacillus cereus (ATCC-10876); assay: Agar diffusion, zone of inhibition; settings: B.cereus, compounds at 50 mg mL^−1; for zone of inhibition at 50 mg/mL: Bacillus cereus, ATCC10876
# Source text: as §6
# The synthesized compounds were initially investigated for their antimicrobial activity to elucidate the potential therapeutic utility against various pathogenic microbes using the agar plate diffusion method. The compounds were tested at a concentration of 50 mg mL^−1, and the antibiotics (ampicillin, kanamycin, and amphotericin B) were used at 5 mg mL^−1. […] K.pneumoniae and B.cereus were resistant to ampicillin, while they were susceptible to kanamycin with inhibition values of 30 and 26 mm, respectively. No antimicrobial activity of the compounds was observed against E.faecalis, S.typhimurium, K.pneumoniae, and for the fungus compared to Amphotericin B (20 mm).
# (§9) Bacillus cereus (ATCC-10876) […]
# as §8
# [4] = tested on: Bacillus cereus (ATCC-10876); assay: Broth microdilution MIC; settings: Bacillus cereus, ATCC10876; B.cereus; read-out: MIC
# Method: as §9, §1, §2, §3, §4
# Bacteria were incubated at 37±0.1 °C and C. albicans at 30±0.1 °C for 24-48 hours and the lowest concentration without growth was determined as MIC. Tests were performed in two parallel runs and mean values were given as a result. […]
# [5] = tested on: Bacillus subtilis (ATCC-19659); assay: Agar diffusion, zone of inhibition; settings: B.subtilis, compounds at 50 mg mL^−1; for zone of inhibition at 50 mg/mL: Bacillus subtilis, ATCC19659
# Source text: as §6, §7, §8
# [6] = tested on: Bacillus cereus (ATCC-10876); assay: MBC by sub-culture from wells without growth; settings: Bacillus cereus, ATCC10876; B.cereus; read-out: MBC
# Method: as §9, §1, §2, §3, §4, §5
# [7] = tested on: Micrococcus luteus (NRRL-B-1018); assay: MBC by sub-culture from wells without growth; settings: NRRLB1018, M.luteus
# Method: Micrococcus luteus (NRRL-B-1018) […]
# as §1, §2, §3, §4, §5
# [8] = tested on: Salmonella typhimurium (NRRL-B-4420); assay: Agar diffusion, zone of inhibition; settings: Salmonella enterica; S.typhimurium; compounds at 50 mg mL^−1
# Source text: as §6, §7
# Salmonella typhimurium (NRRL-B-4420) […]
# as §8
# [9] = tested on: Enterococcus faecalis (ATCC 29212); assay: Agar diffusion, zone of inhibition; settings: ATCC29212, E.faecalis, compounds at 50 mg mL^−1
# Source text: as §6, §7
# Enterococcus faecalis (ATCC 29212) […]
# as §8
Compound,MBC [1],zone of inhibition [2],zone of inhibition at 50 mg/mL [2],zone of inhibition [3],zone of inhibition at 50 mg/mL [3],MIC [4],zone of inhibition [5],zone of inhibition at 50 mg/mL [5],MBC [6],MBC [7],zone of inhibition at 50 mg/mL [8],zone of inhibition at 50 mg/mL [9]
"COc1ccc(C=C(C#N)c2ccccc2)cc1 [2a, 3‐(4‐methoxyphenyl)‐2‐phenylacrylonitrile]",5 mg/mL,13 ± 0.71 mm,13 mm,15 ± 2.12 mm,15 mm,12.5 mg/mL,13 ± 0.71 mm,13 mm,12.5 mg/mL,6.25 mg/mL,< 6 mm,< 6 mm
COc1ccc(/C=C(\C#N)c2ccc(F)cc2)cc1 [2b],12.5 mg/mL,12 ± 1.41 mm,12 mm,13 ± 2.83 mm,13 mm,12.5 mg/mL,13 ± 2.12 mm,13 mm,12.5 mg/mL,12.5 mg/mL,< 6 mm,< 6 mm
COc1ccc(/C=C(\C#N)c2cc(C(F)(F)F)cc(C(F)(F)F)c2)cc1 [2c],12.5 mg/mL,13 ± 0 mm,13 mm,14 ± 0.71 mm,14 mm,12.5 mg/mL,14 ± 0 mm,14 mm,12.5 mg/mL,5 mg/mL,< 6 mm,< 6 mm
